Reference: patent EP0204284A2, “A novel lipase” (SAPPORO BREWERIES LIMITED, priority 1985, dated 1986)
“Also recorded” adds a separate entry of the source. Like-named read-outs stand apart in the source and are kept apart here.

Columns and labels:
lipase [1] = assay type: biochemical, Pseudomonas fragi 22.39B; conditions: for Effect of metal ions on the enzyme (in words): summary statement
Protocol: Thus, the chemical and physical properties, by which the inventive novel lipase is characterized, are as described below. The activity of the enzyme has been determined by the PVA emulsion method proposed by Yamada, et al. and described in Journal of the Agricultural Chemical Society of Japan, volume 36, page 860 (1962) with some modifications if not mentioned otherwise, taking an amount of the enzyme liberating a micro- equivalent of a fatty acid for 1 minute as one unit (U) (see Japanese Patent Publication 56-28517).
The influence of metal ions on the enzymatic actvity was examined by keeping a 9:1 by volume mixture of a 5U/ml solution of the enzyme and a 10 mM solution of the metal ions at 25°C for 30 minutes followed by the determination of the residual activity of the enzyme in the solution. No calcium chloride was contained in the reaction mixture.

lipase [2] = assay: Substrate specificity: relative rate of decomposition of esters, oils and fats (shaking method); assay type: biochemical, Pseudomonas fragi 22.39B; conditions: for Relative rate of decomposition, %: ester as the substrate, triolein as the reference (100), shaking method, pH 9.0, 37°C, 30 minutes; for Activity of the enzyme for the decomposition of the substrate (in words): summary statement
Source text: The enzyme is active for the decomposition of the substrate, such as various kinds of esters and naturally occurring oils and fats. Tables 1-1 and 1-2 given below give the relative rate of decomposition of esters (Table 1-1) and naturally occurring oils and fats (Table 1-2) in % taking triolein and olive oil, respectively, as the reference.
Different from the above mentioned standard procedure of the PVA emulsion method, the results tabulated in Tables 1-1 and 1-2 were obtained by the shaking method according to the conditions and procedures described below.
The solution described above was taken in an Erlenmeyer flask of 100 ml capacity and shaken for 30 minutes in a thermostat at 37°C at a rate of 90 rpm along an 8-shaped line. After completion of the above mentioned reaction time, 20 ml of a 1:1 mixture of acetone and ethyl alcohol were added to the flask and the resultant solution was titrated within a length of time with a 0.05N aqueous solution of sodium hydroxide using phenol phthalein as the indicator.

lipase [3] = assay: Influence of surface active agents on the enzymatic activity (residual activity); assay type: biochemical, Pseudomonas fragi 22.39B; conditions: for Residual activity, %: 9:1 by volume mixture of 10 U/ml enzyme solution and 4% aqueous solution of surface active agent, 25°C, 30 minutes; for Effect of surface active agents on the enzyme (in words): summary statement
Protocol: Thus, the chemical and physical properties, by which the inventive novel lipase is characterized, are as described below.
Similarly, the influence of surface active agents on the enzymatic activity was examined by keeping a 9:1 by volume mixture of a 10 U/ml solution of the enzyme and a 4% aqueous solution of the surface active agent at 25°C for 30 minutes followed by the determination of the residual activity of the enzyme in the solution.

lipase [4] = conditions: Biochim. Biophys. Acta 488, 353-358 (1977); cited from earlier work
lipase [5] = conditions: J. Ferment. Technol. 49, 128 (1971); Japanese Patent Publication 50-25553; cited from earlier work
lipase [6] = conditions: J. Ferment. Technol. 49, 128 (1971); Japanese Patent Publication 50-25553; cited from earlier work; remark: listed apart in the source
lipase [7] = target: T1, lipase (Pseudomonas fragi, UniProt P08658); conditions: J. Gen. Microbiol. 48, 317-328 (1967); cited from earlier work
T1 sequence (P08658 1-293): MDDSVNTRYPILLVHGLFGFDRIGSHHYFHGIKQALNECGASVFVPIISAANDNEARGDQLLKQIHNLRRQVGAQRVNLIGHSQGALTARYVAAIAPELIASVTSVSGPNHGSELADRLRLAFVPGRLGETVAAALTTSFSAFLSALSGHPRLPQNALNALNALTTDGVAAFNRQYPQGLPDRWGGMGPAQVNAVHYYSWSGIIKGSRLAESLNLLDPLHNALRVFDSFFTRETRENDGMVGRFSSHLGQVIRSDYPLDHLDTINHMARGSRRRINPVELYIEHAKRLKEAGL

lipase [8] = target: lipase (Pseudomonas aeruginosa, UniProt P26876); conditions: Biochim. Biophys. Acta 206, 380-391 (1970); cited from earlier work
Sequence of lipase (Pseudomonas aeruginosa, UniProt P26876) (P26876 27-311): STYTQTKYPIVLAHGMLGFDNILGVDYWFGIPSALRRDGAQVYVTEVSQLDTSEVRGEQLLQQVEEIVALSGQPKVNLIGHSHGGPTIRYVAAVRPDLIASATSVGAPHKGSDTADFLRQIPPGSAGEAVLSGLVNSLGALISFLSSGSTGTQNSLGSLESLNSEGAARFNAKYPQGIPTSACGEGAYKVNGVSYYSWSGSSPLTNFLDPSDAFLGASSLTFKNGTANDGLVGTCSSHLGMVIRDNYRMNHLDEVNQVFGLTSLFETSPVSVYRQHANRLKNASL

lipase [9] = conditions: Biochim. Biophys. Acta 488, 353-358 (1977); cited from earlier work; remark: listed apart in the source
[10] = 9:1 by volume mixture of 5U/ml enzyme solution and 10 mM metal ion solution, 25°C, 30 minutes, no calcium chloride

In the case of `[Cl][Ag]` [AgCl], the “Residual activity, %” value (lipase [1]; [10]) is reported as 93.6%.

For `[Cl][Al]([Cl])[Cl]` [AlCl3], the “Residual activity, %” value (lipase [1]; [10]) was 93.6%.

With `[Ba+2].[Cl-].[Cl-]` [BaCl2] the “Residual activity, %” value (lipase [1]; [10]) was 92.7%.

For `CCCCCCCC/C=C\CCCCCCCC(=O)OCCCC` [Butyl oleate], the “Relative rate of decomposition, %” value (lipase [2]) was 95% and the “Activity of the enzyme for the decomposition of the substrate (in words)” value (from here on “Activity of the enzyme”) (lipase [2]) was “Active; also recorded: good activity”.

In the case of `[Ca+2].[Cl-].[Cl-]` [CaCl2], the “Residual activity, %” value (lipase [1]; [10]) is reported as 105.5%.

With `CCCCCCCCCCCCCCCC[N+](C)(C)C.[Br-]` [Cetyl trimethyl ammonium bromide] the “Residual activity, %” value (lipase [3]) was 12% and the “Effect of surface active agents on the enzyme (in words)” value (lipase [3]) was “deactivated”.

For `[Cl-].[Cl-].[Co+2]` [CoCl2], the “Residual activity, %” value (lipase [1]; [10]) was 86.6%.

For `[Cl][Cu][Cl]` [CuCl2], the “Residual activity, %” value (lipase [1]; [10]) was 90.8%.

With `CCCCCCCCCCCC[N+](C)(C)C.[Cl-]` [Dodecyl trimethyl ammonium chloride] the “Residual activity, %” value (lipase [3]) was 35%.

With `CCCCCCCC/C=C\CCCCCCCC(=O)OCC` [Ethyl oleate] the “Relative rate of decomposition, %” value (lipase [2]) was 59%.

In the case of `[Cl][Fe][Cl]` [FeCl2, iron (II) chloride], the “Residual activity, %” value (lipase [1]; [10]) is reported as 36.7% and the “Effect of metal ions on the enzyme (in words)” value (“Effect of metal ions” for short) (lipase [1]) is reported as “Deactivated”.

For `[Cl][Fe]([Cl])[Cl]` [FeCl3, iron (III) chloride], the “Residual activity, %” value (lipase [1]; [10]) is listed as 33.0%, the “Effect of metal ions” value (lipase [1]) is listed as “Deactivated” and the “Activation and deactivation (in words)” value (lipase [4]) is listed as “Almost no deactivation”. For the same molecule, the “Activation and deactivation (in words)” value (lipase [5]) was “Inhibited”.

In the case of `[Cl][Hg][Cl]` [HgCl2, mercury (II) chloride], the “Residual activity, %” value (lipase [1]; [10]) is listed as 83.5%, the “Activation and deactivation (in words)” value (lipase [4]) is listed as “Almost no deactivation” and the “Activation and deactivation (in words)” value (lipase [5]) is listed as “Inhibited”.

In the case of `CCCC(=O)OC` [Methyl butyrate], the “Relative rate of decomposition, %” value (lipase [2]) is listed as 23%, the “Substrate specificity (in words)” value (lipase [6]) is listed as “little active” and the “Substrate specificity (in words)” value (lipase [7]) is listed as “inactive”.

With `CCCCCCCC/C=C\CCCCCCCC(=O)OC` [Methyl oleate] the “Relative rate of decomposition, %” value (lipase [2]) was 87%, the “Activity of the enzyme” value (lipase [2]; listed as methyl - oleate) was “good activity” and the “Activity of the enzyme” value (lipase [2]; listed as methyl oleate) was “Active”. The “Substrate specificity (in words)” value (lipase [7]) was “inactive”.

For `[Cl-].[Cl-].[Mg+2]` [MgCl2], the “Residual activity, %” value (lipase [1]; [10]) was 97.2%.

For `[Cl][Mn][Cl]` [MnCl2], the “Residual activity, %” value (lipase [1]; [10]) was 81.7%.

With `[Cl][Ni][Cl]` [NiCl2] the “Residual activity, %” value (lipase [1]; [10]) was 98.9%.

With `[Cl][Pb][Cl]` [PbCl2] the “Residual activity, %” value (lipase [1]; [10]) was 78.0%.

With `CCCCCCCC/C=C\CCCCCCCC(=O)OCCOCC(OCCO)C1OCC(OCCO)C1OCCO` (stereo not drawn) [Polyoxyethylene sorbitan monooleate] the “Relative rate of decomposition, %” value (lipase [2]) was 50% and the “Residual activity, %” value (lipase [3]) was 115%.

In the case of `[Cl][Sn][Cl]` [SnCl2], the “Residual activity, %” value (lipase [1]; [10]) is reported as 79.8%.

With `[Cl-].[Cl-].[Sr+2]` [SrCl2] the “Residual activity, %” value (lipase [1]; [10]) was 92.7%.

For `CC(=O)OCC(COC(C)=O)OC(C)=O` [Triacetin], the “Relative rate of decomposition, %” value (lipase [2]) was 108% and the “Activity of the enzyme” value (lipase [2]) was “highly active”.

In the case of `CCCC(=O)OCC(COC(=O)CCC)OC(=O)CCC` [Tributyrin], the “Relative rate of decomposition, %” value (lipase [2]) is listed as 243%, the “Activity of the enzyme” value (lipase [2]) is listed as “highly active” and the “Substrate specificity (in words)” value (lipase [6]) is listed as “Active”. For the same molecule, the “Substrate specificity (in words)” value (lipase [8]) was “Active” and the “Substrate specificity (in words)” value (lipase [7]) was “Active”.

In the case of `[Cl-].[Cl-].[Zn+2]` [ZnCl2, zinc chloride], the “Residual activity, %” value (lipase [1]; [10]) is reported as 34.9%, the “Effect of metal ions” value (lipase [1]) is reported as “Deactivated” and the “Effect of metal ions” value (lipase [1]; listed as Zn^2+) is reported as “deactivated; also recorded: deactivating effect”.

For `CCCCCCCCCCCC[N+](C)(C)C.[Br-]` [n-Dodecyl trimethyl ammonium bromide], the “Residual activity, %” value (lipase [3]) was 46%.

In the case of `CCCCCCCCCCCCCCCC(=O)OCC(COC(=O)CCCCCCCCCCCCCCC)OC(=O)CCCCCCCCCCCCCCC` [tri- palmitin], the “Substrate specificity (in words)” value (lipase [9]) is listed as “Active”.

In the case of `CCCCCC(=O)OCC(COC(=O)CCCCC)OC(=O)CCCCC` [tricaproin], the “Substrate specificity (in words)” value (lipase [9]) is listed as “Active”.

For `CCCCCCCCCCCCCC(=O)OCC(COC(=O)CCCCCCCCCCCCC)OC(=O)CCCCCCCCCCCCC` [trimyristin], the “Substrate specificity (in words)” value (lipase [6]) is listed as “Active”.

For KCl, the “Residual activity, %” value (lipase [1]; [10]) was 98.0%.

For LiCl, the “Residual activity, %” value (lipase [1]; [10]) was 97.5%.

In the case of NaCl, the “Residual activity, %” value (lipase [1]; 1000 µM) is reported as 98.0%.

For Polyoxyethylene (10) octyl phenyl ether, the “Residual activity, %” value (lipase [3]) was 105% and the “Effect of surface active agents on the enzyme (in words)” value (lipase [3]) was “somewhat increased”.

For Polyoxyethylene (10) oleyl ether, the “Residual activity, %” value (lipase [3]) was 55%.

With “Sorbitan monolaurate [Sorbitan monolaurate (Span 20)]” the “Relative rate of decomposition, %” value (lipase [2]) was 66%.

In the case of “Sorbitan monooleate [Sorbitan monooleate (Span 80)]”, the “Relative rate of decomposition, %” value (lipase [2]) is reported as 36% and the “Residual activity, %” value (lipase [3]) is reported as 56%.

For copper sulfate, the “Activation and deactivation (in words)” value (lipase [5]) is listed as “Inhibited”.
